Source: ChEMBL document CHEMBL5584283, “Evaluation of Antibacterial Functionalized Dihydropyrimidine Photoaffinity Probes Toward Mechanism of Action Studies” (ACS Med Chem Lett, 2024)
≈ marks a conversion by molar mass, not a printed value.

Legend:
[1] = test system: Staphylococcus aureus; experiment: Antibacterial activity against Staphylococcus aureus ATCC 33591 assessed as partial growth inhibition at high concentration measured after 18 hrs by two-fold serial dilution method relative to control; type: functional
[2] = test system: Erythrocyte; experiment: Hemolytic activity in sheep RBC assessed as hemolysis incubated for 1 hr by absorbance based analysis; type: toxicity, cell-based, Ovis aries
[3] = test system: Staphylococcus aureus; experiment: Antibacterial activity against Staphylococcus aureus ATCC 43300 assessed as partial growth inhibition at high concentration measured after 18 hrs by two-fold serial dilution method relative to control; type: functional
[4] = test system: Staphylococcus aureus; experiment: Antibacterial activity against Staphylococcus aureus ATCC 12600 assessed as reduction in bacterial growth measured after 18 hrs by two-fold serial dilution method; type: functional
[5] = test system: Staphylococcus aureus; experiment: Antibacterial activity against Staphylococcus aureus ATCC 12600 assessed as partial growth inhibition at high concentration measured after 18 hrs by two-fold serial dilution method relative to control; type: functional
[6] = test system: Staphylococcus aureus; experiment: Antibacterial activity against Staphylococcus aureus ATCC 33591 assessed as reduction in bacterial growth measured after 18 hrs by two-fold serial dilution method; type: functional
[7] = test system: Staphylococcus aureus; experiment: Antibacterial activity against Staphylococcus aureus ATCC 43300 assessed as reduction in bacterial growth measured after 18 hrs by two-fold serial dilution method; type: functional

Molecule	growth inhibition (GI) [1]	HC20 [2]	growth inhibition (GI) [3]	MIC [4]	growth inhibition (GI) [5]	MIC [6]	MIC [7]
CCOC(=O)C1=C(c2ccccc2)NC(N)=NC1c1ccc(CC(C)C)cc1 (configuration not stated)	>95%	> 64 µg/mL	–	–	–	–	–
CCOC(=O)C1=C(c2cccc(C)c2)NC(N)=NC1c1cc(Cl)cc(Cl)c1 (configuration not stated)	–	> 64 µg/mL	–	–	–	–	–
CCOC(=O)C1=C(c2ccccc2)NC(N)=NC1c1cccc([N+](=O)[O-])c1 (configuration not stated)	>95%	–	>95%	–	–	–	–
CCOC(=O)C1=C(c2ccccc2)NC(N)=NC1c1ccc(C)cc1C (configuration not stated)	>95%	–	>95%	32 µg/mL (≈ 91.6 µM)	>95%	32 µg/mL (≈ 91.6 µM)	32 µg/mL (≈ 91.6 µM)
CCOC(=O)C1=C(CC)NC(N)=NC1c1ccc(CC(C)C)cc1 (configuration not stated)	–	> 64 µg/mL	>95%	–	>95%	–	–
CCOC(=O)C1=C(c2ccccc2)NC(N)=NC1c1ccc(C(C)C)cc1 (configuration not stated)	>95%	> 64 µg/mL	>95%	–	>95%	–	–
CCOC(=O)C1=C(c2ccccc2)NC(N)=NC1c1cccc(Cl)c1 (configuration not stated)	–	> 64 µg/mL	–	–	–	–	–
CCOC(=O)C1=C(c2ccccc2)NC(N)=NC1c1cccc(C)c1 (configuration not stated)	>95%	–	>95%	64 µg/mL (≈ 191 µM)	>95%	64 µg/mL (≈ 191 µM)	64 µg/mL (≈ 191 µM)
CCOC(=O)C1=C(c2ccccc2)NC(N)=NC1c1ccc(C)c(C)c1 (configuration not stated)	>95%	–	–	–	>95%	–	–
CCOC(=O)C1=C(c2ccccc2)NC(N)=NC1c1ccccc1C (configuration not stated)	>95%	–	>95%	64 µg/mL (≈ 191 µM)	>95%	64 µg/mL (≈ 191 µM)	64 µg/mL (≈ 191 µM)
CCOC(=O)C1=C(c2ccccc2)NC(N)=NC1c1ccc(F)cc1 (configuration not stated)	>95%	–	>95%	64 µg/mL (≈ 189 µM)	>95%	64 µg/mL (≈ 189 µM)	64 µg/mL (≈ 189 µM)
CCOC(=O)C1=C(c2ccccc2)NC(N)=NC1c1ccccc1OC (configuration not stated)	–	> 64 µg/mL	–	–	–	–	–
CCOC(=O)C1=C(c2ccccc2)NC(N)=NC1c1ccccc1 (configuration not stated)	–	> 64 µg/mL	–	–	–	–	–
CCOC(=O)C1=C(c2ccccc2)NC(N)=NC1c1ccc(N(C)C)cc1 (configuration not stated)	>95%	–	>95%	64 µg/mL (≈ 176 µM)	>95%	64 µg/mL (≈ 176 µM)	64 µg/mL (≈ 176 µM)
CCOC(=O)C1=C(c2cccc(C(F)(F)F)c2)NC(N)=NC1c1ccc(CC(C)C)cc1 (configuration not stated)	–	64 µg/mL	–	–	–	–	–
CCOC(=O)C1=C(c2cccc(C(F)(F)F)c2)NC(N)=NC1c1cc(Cl)cc(Cl)c1 (configuration not stated)	–	> 64 µg/mL	–	–	–	–	–
CCOC(=O)C1=C(c2ccccc2)NC(N)=NC1c1cccc(F)c1 (configuration not stated)	>95%	–	>95%	64 µg/mL (≈ 189 µM)	>95%	64 µg/mL (≈ 189 µM)	64 µg/mL (≈ 189 µM)
CCOC(=O)C1=C(c2ccccc2)NC(N)=NC1c1ccc(-c2ccccc2)cc1 (configuration not stated)	–	> 64 µg/mL	–	–	–	–	–
CCOC(=O)C1=C(c2ccccc2)NC(N)=NC1c1c(C)cccc1C (configuration not stated)	–	–	>95%	32 µg/mL (≈ 91.6 µM)	>95%	–	32 µg/mL (≈ 91.6 µM)
CCOC(=O)C1=C(c2ccccc2)NC(N)=NC1c1ccc(OC)cc1 (configuration not stated)	–	> 64 µg/mL	–	64 µg/mL (≈ 182 µM)	>95%	–	–
CCOC(=O)C1=C(CC)NC(N)=NC1c1ccc(-c2ccccc2)cc1 (configuration not stated)	–	–	>95%	4 µg/mL (≈ 11.4 µM)	>95%	–	4 µg/mL (≈ 11.4 µM)
CCOC(=O)C1=C(c2cccc(F)c2)NC(N)=NC1c1ccc(CC(C)C)cc1 (configuration not stated)	–	> 64 µg/mL	–	–	–	–	–
CCOC(=O)C1=C(c2ccccc2)NC(N)=NC1c1cc(Cl)cc(Cl)c1 (configuration not stated)	>95%	> 64 µg/mL	>95%	–	>95%	–	–
CCOC(=O)C1=C(c2cccc(F)c2)NC(N)=NC1c1cc(Cl)cc(Cl)c1 (configuration not stated)	–	> 64 µg/mL	–	–	–	–	–
COc1cc(Cc2cnc(N)nc2N)cc(OC)c1OC [TRIMETHOPRIM]	>95%	–	>95%	32 µg/mL (≈ 110 µM)	>95%	8 µg/mL (≈ 27.6 µM)	8 µg/mL (≈ 27.6 µM)
GENTAMICIN	–	–	–	4 µg/mL	–	4 µg/mL	128 µg/mL
